In PubChem BioAssay (NCI):
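1) Cells in 96-well plates. 2) Compound, 48 h, 5 concentrations. 3) Linear interpolation between surrounding doses. 4) Unreached endpoint = highest concentration. The concentration for full growth arrest is given as TGI.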

Tests used:
Assay in all cases: NCI anticancer screen, dose series, 48 h
[1] = test system: 786-0 renal
[2] = test system: A549 NSCLC
[3] = test system: ACHN renal
[4] = test system: BT-549 breast
[5] = test system: CAKI-1 renal
[6] = test system: CCRF-CEM leukemia
[7] = test system: COLO 205 colon
[8] = test system: DU-145 prostate
[9] = test system: EKVX NSCLC
[10] = test system: HCC-2998 colon
[11] = test system: HCT-116 colon
[12] = test system: HCT-15 colon
[13] = test system: HL-60(TB) leukemia
[14] = test system: HOP-62 NSCLC
[15] = test system: HT29 colon
[16] = test system: IGROV1 ovarian
[17] = test system: K-562 leukemia
[18] = test system: KM12 colon
[19] = test system: LOX IMVI melanoma
[20] = test system: M14 melanoma
[21] = test system: MALME-3M melanoma
[22] = test system: MCF7 breast
[23] = test system: MDA-MB-231 breast
[24] = test system: MDA-MB-435
[25] = test system: MDA-N
[26] = test system: MOLT-4 leukemia
[27] = test system: NCI-H226 lung
[28] = test system: NCI-H23 lung
[29] = test system: NCI-H522 lung
[30] = test system: NCI/ADR-RES ovarian
[31] = test system: OVCAR-3 ovarian
[32] = test system: OVCAR-5 ovarian
[33] = test system: OVCAR-8 ovarian
[34] = test system: PC-3 prostate
[35] = test system: RPMI-8226 leukemia
[36] = test system: RXF 393 renal
[37] = test system: SF-295 CNS
[38] = test system: SF-539 CNS
[39] = test system: SK-MEL-5 melanoma
[40] = test system: SK-OV-3 ovarian
[41] = test system: SN12C renal
[42] = test system: SNB-19 CNS
[43] = test system: SR leukemia
[44] = test system: SW-620 colon
[45] = test system: T-47D breast
[46] = test system: TK-10 renal
[47] = test system: U251 CNS
[48] = test system: UACC-257 melanoma
[49] = test system: UACC-62 melanoma
[50] = test system: UO-31 renal
[51] = test system: A498 renal
[52] = test system: HOP-92 NSCLC
[53] = test system: HS 578T breast
[54] = test system: NCI-H460 lung
[55] = test system: OVCAR-4 ovarian
[56] = test system: SF-268 CNS
[57] = test system: SK-MEL-2 melanoma
[58] = test system: SK-MEL-28 melanoma
[59] = test system: SNB-75 CNS

O=C1CC2(CCNCC2)C(=O)N1N1CCCC1
TGI [1]: > 100 µM | TGI [2]: > 100 µM | TGI [3]: > 100 µM | TGI [4]: > 100 µM | TGI [5]: > 100 µM | TGI [6]: > 100 µM | TGI [7]: > 100 µM | TGI [8]: > 100 µM | TGI [9]: > 100 µM | TGI [10]: > 100 µM | TGI [11]: > 100 µM | TGI [12]: > 100 µM | TGI [13]: > 100 µM | TGI [14]: > 100 µM | TGI [15]: > 100 µM | TGI [16]: > 100 µM | TGI [17]: > 100 µM | TGI [18]: > 100 µM | TGI [19]: > 100 µM | TGI [20]: > 100 µM | TGI [21]: > 100 µM | TGI [22]: > 100 µM | TGI [23]: > 100 µM | TGI [24]: > 100 µM | TGI [25]: > 100 µM | TGI [26]: > 100 µM | TGI [27]: > 100 µM | TGI [28]: > 100 µM | TGI [29]: > 100 µM | TGI [30]: > 100 µM | TGI [31]: > 100 µM | TGI [32]: > 100 µM | TGI [33]: > 100 µM | TGI [34]: > 100 µM | TGI [35]: > 100 µM | TGI [36]: > 100 µM | TGI [37]: > 100 µM | TGI [38]: > 100 µM | TGI [39]: > 100 µM | TGI [40]: > 100 µM | TGI [41]: > 100 µM | TGI [42]: > 100 µM | TGI [43]: > 100 µM | TGI [44]: > 100 µM | TGI [45]: > 100 µM | TGI [46]: > 100 µM | TGI [47]: > 100 µM | TGI [48]: > 100 µM | TGI [49]: > 100 µM | TGI [50]: > 100 µM

COc1cc([C@@H]2c3[nH]c4ccccc4c3C(Nc3ccc([N+](=O)[O-])cc3)[C@H]3COC(=O)N23)cc(OC)c1O (stereo partly specified)
TGI [1]: 0.665 µM | TGI [51]: 0.653 µM | TGI [2]: 0.95 µM | TGI [3]: 0.659 µM | TGI [4]: 4.87 µM | TGI [5]: 2.11 µM | TGI [6]: 0.325 µM | TGI [7]: 2.86 µM | TGI [8]: 0.744 µM | TGI [9]: 17 µM | TGI [10]: 20.3 µM | TGI [11]: 1.42 µM | TGI [12]: 29.2 µM | TGI [13]: 0.048 µM | TGI [14]: 0.302 µM | TGI [52]: 1.96 µM | TGI [53]: 2.79 µM | TGI [16]: 2.86 µM | TGI [17]: 6.97 µM | TGI [18]: 2.71 µM | TGI [19]: 0.297 µM | TGI [20]: 2.2 µM | TGI [21]: 1.31 µM | TGI [22]: 0.624 µM | TGI [23]: 0.648 µM | TGI [24]: 2.45 µM | TGI [25]: 2.81 µM | TGI [26]: 0.289 µM | TGI [27]: 0.532 µM | TGI [28]: 1.51 µM | TGI [54]: 1.44 µM | TGI [29]: 1.97 µM | TGI [30]: > 100 µM | TGI [31]: 1.98 µM | TGI [55]: 5.91 µM | TGI [32]: 2.06 µM | TGI [33]: 0.86 µM | TGI [34]: 7.88 µM | TGI [36]: 1.04 µM | TGI [56]: 5.35 µM | TGI [37]: 1.02 µM | TGI [38]: 0.302 µM | TGI [57]: > 72.7 µM | TGI [58]: 0.704 µM | TGI [39]: 0.663 µM | TGI [40]: 2.31 µM | TGI [41]: 3.76 µM | TGI [42]: 0.698 µM | TGI [59]: 1.66 µM | TGI [45]: > 23.2 µM | TGI [46]: 0.754 µM | TGI [47]: 1.4 µM | TGI [48]: 11.6 µM | TGI [49]: 1.17 µM | TGI [50]: 3.22 µM

O=C(NC1=NC2C=CC([N+](=O)[O-])=CC2S1)C(=O)Nn1c(=S)[nH]c2ccccc2c1=O (stereo unspecified)
TGI [1]: > 100 µM | TGI [51]: > 100 µM | TGI [2]: > 100 µM | TGI [3]: 85.3 µM | TGI [4]: > 100 µM | TGI [5]: > 100 µM | TGI [6]: > 100 µM | TGI [9]: > 100 µM | TGI [10]: > 100 µM | TGI [11]: > 100 µM | TGI [12]: > 100 µM | TGI [13]: > 100 µM | TGI [14]: > 100 µM | TGI [52]: > 100 µM | TGI [53]: > 100 µM | TGI [15]: > 100 µM | TGI [16]: > 100 µM | TGI [17]: > 100 µM | TGI [18]: > 100 µM | TGI [19]: > 100 µM | TGI [20]: > 100 µM | TGI [21]: > 100 µM | TGI [22]: > 100 µM | TGI [23]: > 100 µM | TGI [24]: > 100 µM | TGI [25]: > 100 µM | TGI [26]: > 100 µM | TGI [27]: > 100 µM | TGI [28]: > 100 µM | TGI [54]: > 100 µM | TGI [29]: > 100 µM | TGI [30]: > 100 µM | TGI [31]: > 100 µM | TGI [55]: > 100 µM | TGI [32]: > 100 µM | TGI [33]: > 100 µM | TGI [34]: > 100 µM | TGI [35]: > 100 µM | TGI [36]: > 100 µM | TGI [56]: > 100 µM | TGI [37]: > 100 µM | TGI [38]: > 100 µM | TGI [57]: > 100 µM | TGI [58]: > 100 µM | TGI [39]: > 100 µM | TGI [40]: > 100 µM | TGI [41]: > 100 µM | TGI [42]: 72.7 µM | TGI [59]: > 100 µM | TGI [44]: > 100 µM | TGI [45]: > 100 µM | TGI [46]: > 100 µM | TGI [47]: > 100 µM | TGI [48]: > 100 µM | TGI [49]: > 100 µM | TGI [50]: > 100 µM
